Data published in paper PMC6382392 (Journal of medicinal chemistry, 2018).
pIC50: −log10 of the molar value.

Assays:
[1] = tested on: PC43–10 CHO cells expressing human RFC; assay: Growth inhibition; details: CHO subline expressing human RFC; drug up to 1000 nM, up to 96 h; mean (SE)
[2] = tested on: NCI-IGROV1 EOC xenografts; assay: In vivo efficacy trial, subcutaneous NCI-IGROV1 EOC xenografts in SCID mice; details: for Antitumor activity toward NCI-IGROV1 tumors in vivo (in words): SCID mice, folate-deficient diet
FRβ = FRβ (Homo sapiens, UniProt P14207); assay: Competitive [3H]folic acid binding to FRβ in D4 CHO cells; details: 50 nM [3H]folic acid, 15 min, 0 °C
Chain of FRβ (P14207 17-255): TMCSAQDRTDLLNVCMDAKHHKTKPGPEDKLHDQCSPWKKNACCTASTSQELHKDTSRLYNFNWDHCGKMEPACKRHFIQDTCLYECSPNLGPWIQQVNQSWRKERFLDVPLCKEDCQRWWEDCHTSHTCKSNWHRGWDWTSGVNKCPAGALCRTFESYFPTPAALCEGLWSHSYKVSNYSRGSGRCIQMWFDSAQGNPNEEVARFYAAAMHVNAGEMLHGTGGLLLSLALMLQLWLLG

FRα = FRα (Homo sapiens, UniProt P15328); assay: Competitive [3H]folic acid binding to FRα in RT16 CHO cells; details: 50 nM [3H]folic acid, 15 min, 0 °C
Chain of FRα (P15328 25-257): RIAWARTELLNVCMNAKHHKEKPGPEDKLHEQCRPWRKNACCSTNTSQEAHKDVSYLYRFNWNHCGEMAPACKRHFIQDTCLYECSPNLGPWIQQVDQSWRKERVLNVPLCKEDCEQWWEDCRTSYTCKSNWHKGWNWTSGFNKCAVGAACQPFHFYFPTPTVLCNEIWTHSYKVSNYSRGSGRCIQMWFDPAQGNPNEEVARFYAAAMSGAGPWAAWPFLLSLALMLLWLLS

[3] = tested on: D4 CHO cells expressing human FRβ; details: for pIC50: Homo sapiens, CHO, read-out: IC50 growth inhibition, FRβ, D4; for IC50 growth inhibition, FRβ, D4: without folic acid, mean (SE)
[4] = tested on: KB human tumor cells (RFC/FRα/PCFT); assay: Growth inhibition of KB human tumor cells, with and without 200 nM folic acid; details: without folic acid; mean (SE)
[5] = tested on: RT16 CHO cells expressing human FRα
PCFT = target: T1, PCFT (Homo sapiens, UniProt Q96NT5); assay: Competitive inhibition of [3H]MTX uptake by PCFT in R2/PCFT4 cells; type: cell-based
T1 sequence (Q96NT5 1-459): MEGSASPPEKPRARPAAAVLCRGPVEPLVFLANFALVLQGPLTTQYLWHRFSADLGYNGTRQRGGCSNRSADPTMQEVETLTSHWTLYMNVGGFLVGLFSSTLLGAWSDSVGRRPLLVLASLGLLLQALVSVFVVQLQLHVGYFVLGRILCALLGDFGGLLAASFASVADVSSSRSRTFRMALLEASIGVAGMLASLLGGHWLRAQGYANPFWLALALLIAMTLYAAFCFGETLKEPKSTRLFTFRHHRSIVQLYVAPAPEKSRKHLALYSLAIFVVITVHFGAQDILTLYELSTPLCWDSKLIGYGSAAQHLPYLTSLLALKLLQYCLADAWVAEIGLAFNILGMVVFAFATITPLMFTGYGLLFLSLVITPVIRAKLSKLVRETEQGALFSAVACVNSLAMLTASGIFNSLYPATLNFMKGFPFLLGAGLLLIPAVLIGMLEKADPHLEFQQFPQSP

Nc1nc2[nH]c(CCCCc3ccc(C(=O)N[C@@H](CCC(=O)O)C(=O)O)cc3)cc2c(=O)[nH]1 [Compound 1, reference compound]
IC50 growth inhibition, RFC, PC43–10 [1]: no activity

Nc1nc2[nH]c(CCCCc3ccc(C(=O)N[C@@H](CCC(=O)O)C(=O)O)nc3)cc2c(=O)[nH]1 [Compound 6, (5-(4-(2-Amino-4-oxo-4,7-dihydro-3H-pyrrolo[2,3-d]pyrimidin-6-yl)butyl)picolinoyl)-L-glutamic Acid]
Antitumor activity toward NCI-IGROV1 tumors in vivo (in words) [2]: excellent activity | Antitumor activity, standard (high folate) diet ([2]; mice on standard folate-replete diet): abolished | IC50 growth inhibition, RFC, PC43–10 [1]: no activity

Nc1nc2[nH]c(CCCCc3cccc(C(=O)N[C@@H](CCC(=O)O)C(=O)O)n3)cc2c(=O)[nH]1 [Compound 7, (6-(4-(2-Amino-4-oxo-4,7-dihydro-3H-pyrrolo[2,3-d]pyrimidin-6-yl)butyl)picolinoyl)-L-glutamic Acid]
Relative binding affinity to FRβ (vs folic acid) (FRβ): sharply reduced | Relative binding affinity to FRα (vs folic acid) (FRα): sharply reduced | pIC50 [3]: < 6.00 | IC50 growth inhibition, FRβ, D4 [3]: inactive

Nc1nc2[nH]c(CCC#Cc3ccc(C(=O)N[C@@H](CCC(=O)O)C(=O)O)nc3)cc2c(=O)[nH]1 [Compound 9, (5-(4-(2-Amino-4-oxo-4,7-dihydro-3H-pyrrolo[2,3-d]pyrimidin-6-yl)but-1-yn-1-yl)picolinoyl)-L-glutamic Acid]
IC50 growth inhibition, RFC/FRα/PCFT, KB [4]: inactive | Fold less active than 6, FRα-expressing CHO cells [5]: ~ 4 fold

Nc1nc2[nH]c(CCC#Cc3cccc(C(=O)N[C@@H](CCC(=O)O)C(=O)O)n3)cc2c(=O)[nH]1 [Compound 10, (6-(4-(2-Amino-4-oxo-4,7-dihydro-3H-pyrrolo[2,3-d]pyrimidin-6-yl)but-1-yn-1-yl)picolinoyl)-L-glutamic Acid]
pIC50 [3]: < 6.00 | IC50 growth inhibition, FRβ, D4 [3]: inactive | pIC50 ([5]; Homo sapiens, RT16, read-out: IC50 growth inhibition, FRα, RT16): < 6.00 | IC50 growth inhibition, FRα, RT16 ([5]; without folic acid, mean (SE)): no activity

Nc1nc2[nH]cc(CCc3ccc(C(=O)N[C@@H](CCC(=O)O)C(=O)O)cc3)c2c(=O)[nH]1 [PMX, N-{4-[2-(2-amino-3,4-dihydro-4-oxo-7H-pyrrolo-[2,3-d]pyrimidin-5-yl)ethyl]benzoyl}-L-glutamic acid, reference compound]
inhibition at 10 µM (PCFT; R2/PCFT4, pH 5.5, read-out: Inhibition of [3H]MTX transport by PCFT): ≥ 90% | Antitumor activity toward NCI-IGROV1 tumors in vivo (in words) [2]: inactive

CN(Cc1cnc2nc(N)nc(N)c2n1)c1ccc(C(=O)N[C@@H](CCCNC(=O)c2ccccc2C(=O)O)C(=O)O)cc1 [PT523, Nα-(4-amino-4-deoxypteroyl)-Nδ-hemiphthaloyl-L-ornithine]
Effect on [3H]MTX uptake by PCFT (PCFT; pH 5.5 and pH 6.8, 1 or 10 μM): no effect
